This note sets out measurements from ChEMBL document CHEMBL1154641 (Bioorg Med Chem Lett, 2009).

In general, pKi refers to −log10 of the Ki, conventionally taken in molar units. Low values mean a high Ki, high ones a low Ki.

pKi: −log10 of the molar value.

In the assay the target is T1, Carbonic anhydrase 2 (Mycobacterium tuberculosis, UniProt P9WPJ9).
T1 sequence (P9WPJ9 whole entry): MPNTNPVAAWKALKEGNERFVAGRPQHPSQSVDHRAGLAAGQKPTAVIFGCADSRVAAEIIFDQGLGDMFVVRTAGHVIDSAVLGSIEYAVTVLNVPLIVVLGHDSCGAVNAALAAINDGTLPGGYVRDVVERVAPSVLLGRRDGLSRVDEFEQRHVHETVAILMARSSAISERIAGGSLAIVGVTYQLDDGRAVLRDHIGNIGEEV
Description: Inhibition of full length Mycobacterium tuberculosis H37Rv recombinant carbonic anhydrase 2 encoded by RV3588c by stopped flow CO2 hydration assay
The compound `Nc1ccc(S(N)(=O)=O)cc1I` had a negative-log Ki (pKi) of 4.49.

Compound `NS(=O)(=O)c1nnc(-c2ccccc2Cl)s1` had a negative logarithm of the Ki (pKi) of 4.34.

`Nc1ccc(S(N)(=O)=O)cc1Br` showed a negative-log Ki (pKi) of 4.50.

In the case of `NS(=O)(=O)c1ccc(CO)cc1`, the pKi is 4.42.

The compound `NCCc1ccc(S(N)(=O)=O)cc1` showed a negative logarithm of the Ki (pKi) of 4.54.

In turn, `Nc1ccc(S(=O)(=O)NCCc2ccc(S(N)(=O)=O)cc2)cc1` gave a pKi of 5.64.

In the case of `NS(=O)(=O)c1ccc(S(=O)(=O)Nc2cccc3c(Cl)c[nH]c23)cc1`, the pKi is 6.14.

`NCc1ccc(S(N)(=O)=O)cc1` [MAFENIDE]: the negative-log Ki (pKi) was 4.51.

Compound `Cc1ccc(S(N)(=O)=O)cc1` [P-TOLUENESULFONAMIDE] showed a pKi of 4.41.
